Like-named read-outs stand apart in the source and are kept apart here.
[1] = Cohort 3 (n=3): ASP9853 37.5 mg + docetaxel 60 mg/m^2
[2] = Cohort 4 (n=7): ASP9853 50 mg + docetaxel 60 mg/m^2
[3] = Total ASP9853 combination with docetaxel (n=20)
[4] = lead-in phase, ASP9853 single agent
[5] = patients receiving ASP9853 in combination with docetaxel

Compound: O.O.O=C(/C=C/c1ccc(Cl)cc1)N[C@@H](Cc1ccccn1)C(=O)NCC(=O)N1CCC(Oc2cc(C(F)(F)F)ncn2)CC1 [ASP9853, (2E)-3-(4-chlorophenyl)-N-[(1S)-2-oxo-2-{[2-oxo-2-(4-{[6-(trifluoromethyl)-4-pyrimidinyl]oxy}-1-piperidinyl)ethyl]amino}-1-(2-pyridinylmethyl)ethyl]acrylamide dehydrate]
- AE potentially related to ASP9853: Decreased appetite; Grade All [1]: 1 (33) n (%)
- AE potentially related to ASP9853: Diarrhea; Grade 3/4 (only Grade 3) [1]: 0 n (%)
- AE potentially related to ASP9853: Diarrhea; Grade All [1]: 1 (33) n (%)
- AE potentially related to ASP9853: Dizziness; Grade 3/4 [1]: 0 n (%)
- AE potentially related to ASP9853: Dizziness; Grade All [1]: 1 (33) n (%)
- AE potentially related to ASP9853: Fatigue; Grade 3/4 (only Grade 3) [1]: 0 n (%)
- AE potentially related to ASP9853: Fatigue; Grade All [1]: 2 (67) n (%)
- AE potentially related to ASP9853: Febrile neutropenia; Grade 3/4 [1]: 0 n (%)
- AE potentially related to ASP9853: Febrile neutropenia; Grade All [1]: 0 n (%)
- AE potentially related to ASP9853: Nausea; Grade 3/4 [1]: 0 n (%)
- AE potentially related to ASP9853: Nausea; Grade All [1]: 1 (33) n (%)
- AE potentially related to ASP9853: Neutropenia; Grade 3/4 [1]: 1 (33) n (%)
- AE potentially related to ASP9853: Neutropenia; Grade All [1]: 1 (33) n (%)
- AE potentially related to ASP9853: Neutrophil count decreased; Grade 3/4 [1]: 1 (33) n (%)
- AE potentially related to ASP9853: Neutrophil count decreased; Grade All [1]: 1 (33) n (%)
- AE potentially related to ASP9853: Overall; Grade 3/4 [1]: 2 (67) n (%)
- AE potentially related to ASP9853: Overall; Grade All [1]: 3 (100) n (%)
- AE potentially related to ASP9853: Vomiting; Grade 3/4 [1]: 0 n (%)
- AE potentially related to ASP9853: Vomiting; Grade All [1]: 0 n (%)
- AE potentially related to ASP9853: White blood cell count decreased; Grade All [1]: 2 (67) n (%)
- DLTs (Cohort 3: ASP9853 37.5 mg + docetaxel 60 mg/m^2, three patients): no DLTs were observed
- SAE considered related to ASP9853: leukopenia (Cohort 4): 1 n
- SAE considered related to ASP9853: neutropenia (Cohort 4): 1 n
- AE potentially related to ASP9853: Anemia; Grade 3/4 [2]: 0 n (%)
- AE potentially related to ASP9853: Anemia; Grade All [2]: 1 (14) n (%)
- AE potentially related to ASP9853: Asthenia; Grade 3/4 [2]: 0 n (%)
- AE potentially related to ASP9853: Asthenia; Grade All [2]: 0 n (%)
- AE potentially related to ASP9853: Constipation; Grade 3/4 [2]: 0 n (%)
- AE potentially related to ASP9853: Constipation; Grade All [2]: 1 (14) n (%)
- AE potentially related to ASP9853: Decreased appetite; Grade 3/4 [2]: 0 n (%)
- AE potentially related to ASP9853: Decreased appetite; Grade All [2]: 0 n (%)
- AE potentially related to ASP9853: Diarrhea; Grade 3/4 (only Grade 3) [2]: 0 n (%)
- AE potentially related to ASP9853: Diarrhea; Grade All [2]: 0 n (%)
- AE potentially related to ASP9853: Dizziness; Grade 3/4 [2]: 0 n (%)
- AE potentially related to ASP9853: Dizziness; Grade All [2]: 2 (29) n (%)
- AE potentially related to ASP9853: Fatigue; Grade 3/4 (only Grade 3) [2]: 1 (14) n (%)
- AE potentially related to ASP9853: Fatigue; Grade All [2]: 2 (29) n (%)
- AE potentially related to ASP9853: Febrile neutropenia; Grade 3/4 [2]: 0 n (%)
- AE potentially related to ASP9853: Febrile neutropenia; Grade All [2]: 0 n (%)
- AE potentially related to ASP9853: Nausea; Grade 3/4 [2]: 0 n (%)
- AE potentially related to ASP9853: Nausea; Grade All [2]: 1 (14) n (%)
- AE potentially related to ASP9853: Neutropenia; Grade 3/4 [2]: 2 (29) n (%)
- AE potentially related to ASP9853: Neutropenia; Grade All [2]: 2 (29) n (%)
- AE potentially related to ASP9853: Neutrophil count decreased; Grade 3/4 [2]: 1 (14) n (%)
- AE potentially related to ASP9853: Neutrophil count decreased; Grade All [2]: 1 (14) n (%)
- AE potentially related to ASP9853: Overall; Grade 3/4 [2]: 4 (57) n (%)
- AE potentially related to ASP9853: Overall; Grade All [2]: 7 (100) n (%)
- AE potentially related to ASP9853: Vomiting; Grade 3/4 [2]: 0 n (%)
- AE potentially related to ASP9853: Vomiting; Grade All [2]: 1 (14) n (%)
- AE potentially related to ASP9853: White blood cell count decreased; Grade All [2]: 2 (29) n (%)
- AE potentially related to ASP9853: Anemia; Grade 3/4 [3]: 0 n (%)
- AE potentially related to ASP9853: Anemia; Grade All [3]: 3 (15) n (%)
- AE potentially related to ASP9853: Asthenia; Grade 3/4 [3]: 0 n (%)
- AE potentially related to ASP9853: Asthenia; Grade All [3]: 2 (10) n (%)
- AE potentially related to ASP9853: Constipation; Grade 3/4 [3]: 0 n (%)
- AE potentially related to ASP9853: Constipation; Grade All [3]: 3 (15) n (%)
- AE potentially related to ASP9853: Decreased appetite; Grade 3/4 [3]: 0 n (%)
- AE potentially related to ASP9853: Decreased appetite; Grade All [3]: 2 (10) n (%)
- AE potentially related to ASP9853: Diarrhea; Grade 3/4 (only Grade 3) [3]: 1 (5) n (%)
- AE potentially related to ASP9853: Diarrhea; Grade All [3]: 4 (20) n (%)
- AE potentially related to ASP9853: Dizziness; Grade 3/4 [3]: 0 n (%)
- AE potentially related to ASP9853: Dizziness; Grade All [3]: 3 (15) n (%)
- AE potentially related to ASP9853: Fatigue; Grade 3/4 (only Grade 3) [3]: 2 (10) n (%)
- AE potentially related to ASP9853: Fatigue; Grade All [3]: 9 (45) n (%)
- AE potentially related to ASP9853: Febrile neutropenia; Grade 3/4 [3]: 2 (10) n (%)
- AE potentially related to ASP9853: Febrile neutropenia; Grade All [3]: 2 (10) n (%)
- AE potentially related to ASP9853: Nausea; Grade 3/4 [3]: 0 n (%)
- AE potentially related to ASP9853: Nausea; Grade All [3]: 4 (20) n (%)
- AE potentially related to ASP9853: Neutropenia; Grade 3/4 [3]: 4 (20) n (%)
- AE potentially related to ASP9853: Neutropenia; Grade All [3]: 4 (20) n (%)
- AE potentially related to ASP9853: Neutrophil count decreased; Grade 3/4 [3]: 2 (10) n (%)
- AE potentially related to ASP9853: Neutrophil count decreased; Grade All [3]: 2 (10) n (%)
- AE potentially related to ASP9853: Overall; Grade 3/4 [3]: 11 (55) n (%)
- AE potentially related to ASP9853: Overall; Grade All [3]: 18 (90) n (%)
- AE potentially related to ASP9853: Vomiting; Grade 3/4 [3]: 0 n (%)
- AE potentially related to ASP9853: Vomiting; Grade All [3]: 4 (20) n (%)
- AE potentially related to ASP9853: White blood cell count decreased; Grade All [3]: 5 (25) n (%)
- Patients with AEs considered to be potential DLTs (all cohorts, ASP9853 + docetaxel): Five
- Patients who met the protocol-defined DLT criteria (in Cohorts 1 and 2): three
- Patients with post-baseline maximum Grade 1 neutropenia (laboratory evaluation): three
- Patients with post-baseline maximum Grade 4 neutropenia (laboratory evaluation): eight
- AE possibly related to ASP9853: QT prolonged electrocardiogram [4]: 1 n
- AE possibly related to ASP9853: arthralgia [4]: 1 n
- AE possibly related to ASP9853: asthenia [4]: 1 n
- AE possibly related to ASP9853: gastrooesophageal reflux disease [4]: 1 n
- AE possibly related to ASP9853: leukopenia [4]: 1 n
- AE possibly related to ASP9853: nausea [4]: 1 n
- AE possibly related to ASP9853: pollakiuria [4]: 1 n
- AE possibly related to ASP9853: vomiting [4]: 1 n
- AE regardless of relationship to study drug: alopecia [5]: 30.0%
- AE regardless of relationship to study drug: decreased appetite [5]: 30.0%
- AE regardless of relationship to study drug: decreased white blood cells [5]: 35.0%
- AE regardless of relationship to study drug: fatigue [5]: 45.0%
- AE regardless of relationship to study drug: nausea [5]: 35.0%
- AE regardless of relationship to study drug: neutropenia [5]: 50.0%

— publication PMC4767605 (Cancer chemotherapy and pharmacology, 2016)
